Structures are written as SMILES.

Common to all, as to type: in vivo
Test [1] relates to Fusarium nivale (var. majus). The test can be described thus: Fusarium nivale (var. majus) test (wheat)/protective. Particulars: protective, application rate 500 g/ha, evaluation 6 days after inoculation. On the procedure:
Fusarium nivale (var. majus) Test (Wheat)/Protective [table] To produce a suitable preparation of active compound, 1 part by weight of active compound is mixed with the stated amounts of solvent and emulsifier, and the concentrate is diluted with water to the desired concentration. To test for protective activity, young plants are sprayed with the preparation of active compound at the stated application rate. After the spray coating has dried on, the plants are sprayed with a conidia suspension of Fusarium nivale (var. majus). The plants are placed in a greenhouse under transparent incubation hoods at a temperature of about 15° C. and a relative atmospheric humidity of about 100%.

Test [2] relates to Pyricularia oryzae. Particulars: rice, protective, application rate 500 g/ha, evaluation 6 days after inoculation.
The subject of test [3] is diamondback moth (Plutella xyostella). The test can be described thus: Plutella test (plant-damaging insects). Particulars: 1000 ppm active compound on synthetic feed, eggs/larvae. As to the method: Plutella Test [table] To produce a suitable preparation of active compound, 1 part by weight of active compound is mixed with the stated amount of solvent, and the concentrate is diluted with methanol to the desired concentrations. A stated amount of preparation of active compound of the desired concentration is pipetted onto a standardized amount of synthetic feed. After the methanol has evaporated, about 200-300 eggs of the diamondback moth (Plutella xyostella) are placed onto the feed. After the desired period of time, the kill of the eggs or larvae in % is determined. 100% means that all animals have been killed; 0% means that none of the animals has been killed.

As to `C=C(C)CN(CC)c1c(-c2c(F)cc(F)cc2F)c(Cl)nc2c(C#N)cnn12` [drawing 138], in test [1], the Efficacy in % worked out at 100%.
On to `C[C@H](Nc1c(-c2c(F)cc(F)cc2F)c(Cl)nc2c(Cl)cnn12)C(F)(F)F` [drawing 139], for which the Efficacy in % in test [1] is recorded as 80%.
On the same count and under the same terms, the value for `CC(Nc1c(-c2ccc(F)cc2Cl)c(Cl)nc2c(C#N)cnn12)C(F)(F)F` (centres unmarked) [drawing 137] was 88%.
`C[C@H](Nc1c(-c2ccccc2F)c(Cl)nc2c(C#N)cnn12)C(F)(F)F` [drawing 143]: the Efficacy in % in test [2] is 75%.
Turning to `CC(Nc1c(-c2ccc(F)cc2Cl)c(Cl)nc2c(C#N)cnn12)C(F)(F)F` (centres unmarked) [drawing 144], the “Kill rate in % after 7^d” value in test [3] stood at 100%.

Values taken from patent publication US20060089499A1, “Pyrazolopyrimidines and the use thereof for controlling harmful organisms” (priority 2002, published 2006).
